Active and inactive are the calls of the source. The calls are words filed in the database; no cut-off is given here.
Experiments:
Hepatocyte [1] = experiment: Antihepatotoxic activity against 1.5 hrs galactosamine pretreatment-induced cytotoxicity in Wistar rat hepatocytes assessed as glutamic-pyruvic transaminase activity at 1 mg/ml after 30 hrs relative to control; assay type: functional
Hepatocyte [2] = experiment: Antihepatotoxic activity against 1.5 hrs galactosamine pretreatment-induced cytotoxicity in Wistar rat hepatocytes assessed as glutamic-pyruvic transaminase activity at 0.1 mg/ml after 30 hrs relative to control; assay type: functional
Hepatocyte [3] = experiment: Antihepatotoxic activity against 1.5 hrs galactosamine pretreatment-induced cytotoxicity in Wistar rat hepatocytes assessed as glutamic-pyruvic transaminase activity at 0.01 mg/ml after 30 hrs relative to control; assay type: functional
Hepatocyte [4] = experiment: Cytotoxicity in Wistar rat hepatocytes assessed as glutamic-pyruvic transaminase activity at 0.1 mg/ml after 30 hrs; assay type: cell-based
Hepatocyte [5] = experiment: Cytotoxicity in Wistar rat hepatocytes assessed as glutamic-pyruvic transaminase activity at 0.01 mg/ml after 30 hrs; assay type: cell-based
Hepatocyte [6] = experiment: Cytotoxicity in Wistar rat hepatocytes assessed as glutamic-pyruvic transaminase activity at 1 mg/ml after 30 hrs; assay type: cell-based
Hepatocyte [7] = experiment: Effect on 1.5 hrs galactosamine pretreatment-induced cytotoxicity in Wistar rat hepatocytes at 1 uM; assay type: functional, cell-based
Hepatocyte [8] = experiment: Effect on 1.5 hrs galactosamine pretreatment-induced cytotoxicity in Wistar rat hepatocytes assessed as glutamic-pyruvic transaminase activity at 1 uM; assay type: functional

SMILES	Activity (Hepatocyte [1])	Activity (Hepatocyte [2])	Activity (Hepatocyte [3])	Activity (Hepatocyte [4])	Activity (Hepatocyte [5])	Activity (Hepatocyte [6])	Activity (Hepatocyte [7])	Activity (Hepatocyte [8])
CSCC[C@H](N)C(=O)O [METHIONINE]	122%	113%	106%	28 IU/L	24 IU/L	25 IU/L	–	–
COc1cc(C(=O)O[C@H]2[C@@H]3C=CO[C@@H](O[C@@H]4O[C@H](CO)[C@@H](O)[C@H](O)[C@H]4O)[C@@H]3[C@@]3(CO)O[C@@H]23)ccc1O [PICROSIDE II]	78%	101%	103%	28 IU/L	27 IU/L	40 IU/L	–	–
O=C(/C=C/c1ccc(O)c(O)c1)O[C@@H]1C[C@@](OC(=O)/C=C/c2ccc(O)c(O)c2)(C(=O)O)C[C@@H](O)[C@@H]1O [CYNARIN]	48%	84%	95%	27 IU/L	20 IU/L	51 IU/L	–	–
COc1cc(C2Oc3cc([C@H]4Oc5cc(O)cc(O)c5C(=O)[C@@H]4O)ccc3OC2CO)ccc1O (some centres undefined) [SILIBININ]	66%	103%	106%	157 IU/L	29 IU/L	93 IU/L	–	–
COc1cc([C@@H]2c3cc4c(cc3C[C@H]3COC(=O)[C@@H]32)OCO4)cc(OC)c1OC [DESOXYPODOPHYLLOTOXIN]	92%	50%	93%	35 IU/L	43 IU/L	137 IU/L	–	–
CC1(C)[C@@H](O)CC[C@]2(C)[C@H]3C(=O)C=C4[C@@H]5C[C@@](C)(C(=O)O)CC[C@]5(C)CC[C@@]4(C)[C@]3(C)CC[C@@H]12 [ENOXOLONE]	27%	58%	–	16 IU/L	26 IU/L	42 IU/L	–	–
CC1(C)[C@@H](O[C@H]2O[C@H](C(=O)O)[C@@H](O)[C@H](O)[C@H]2O[C@@H]2O[C@H](C(=O)O)[C@@H](O)[C@H](O)[C@H]2O)CC[C@]2(C)[C@H]3C(=O)C=C4[C@@H]5C[C@@](C)(C(=O)O)CC[C@]5(C)CC[C@@]4(C)[C@]3(C)CC[C@@H]12 [GLYCYRRHIZIN]	24%	100%	103%	59 IU/L	24 IU/L	21 IU/L	–	–
O=C(/C=C/c1ccccc1)OC[C@H]1O[C@@H](O[C@@H]2OC=C[C@H]3[C@H](O)[C@@H]4O[C@]4(CO)[C@@H]23)[C@H](O)[C@@H](O)[C@@H]1O [PICROSIDE I]	111%	122%	96%	50 IU/L	24 IU/L	131 IU/L	–	–
C[C@@H]1C[C@H]2[C@@H]3CCC4=CC(=O)C=C[C@]4(C)[C@@]3(F)[C@@H](O)C[C@]2(C)[C@@]1(O)C(=O)CO [DEXAMETHASONE]	–	–	–	–	–	–	inactive	96 IU/L

Source: ChEMBL document CHEMBL1145673, “Assay method for antihepatotoxic activity using galactosamine-induced cytotoxicity in primary-cultured hepatocytes” (J Nat Prod, 1983)
